Columns and labels:
Type in all cases: physicochemical
[1] = Phase conversion of the amorphous form at room temperature
From the text: The phase transformation can be seen for example in a DSC measurement or under a hot stage microscope.

[2] = Slurry examples: forms suspended in water at 30° C., stirred, XRD analysis; conditions: magnetic stirrer
Procedure: Slurry Examples Proving the Stability of Form B:
The form in question or mixtures of different forms of 3-(difluoromethyl)-1-methyl-N-(3′,4′,5′-trifluoro[1,1′-biphenyl]-2-yl)-1H-pyrazole-4-carboxamide were suspended in water at 30° C.

[3] = Formulation stability upon storage at 40° C. for one week (sedimentation, particle size, crystalline modification by DSC and PXRD); conditions: SC formulation
Procedure: The stability of the crystalline forms was tested by formulating form A or form B according to examples 1 and 2 and analyzing the formulation stability in the form of sedimentation, particle size growth and change in crystalline modification.
The obtained formulations were assessed for their stability upon storage at 40° C. for one week. Microscopic pictures of the formulation were taken before and after storage at 40° C. to examplify the change in particle size. Dispersion stability was assessed using a 2% dilution of the formulation in water in a conical cylinder. The sedimentation volume is recorded after 2 hours of standing. The sediment was collected and analysed using DSC and powder diffraction diffractometry to characterized the solid sediment (giving thus evidence of the sediment amount and crystalline modification present in the sedimentation).
This would in practice be very unfavourable and cause blocking of nozzle during the application and inhomogeneous distribution of the active ingredient into the formulation.

Cn1cc(C(=O)Nc2ccccc2-c2cc(F)c(F)c(F)c2)c(C(F)F)n1 [amorphous form, 3-(Difluormethyl)-1-methyl-N-(3′,4′,5′-trifluor[1,1′-biphenyl]-2-yl)-1H-pyrazol-4-carboxamide]
Conversion of solid form on standing [1]: converts at room temperature slowly to crystalline form A or typically to mixtures of form A and form B
Conversion of solid form in water suspension (XRD analysis) ([2]; after 1 day): converted (based on XRD analysis) into form B

Cn1cc(C(=O)Nc2ccccc2-c2cc(F)c(F)c(F)c2)c(C(F)F)n1 [form A, 3-(Difluormethyl)-1-methyl-N-(3′,4′,5′-trifluor[1,1′-biphenyl]-2-yl)-1H-pyrazol-4-carboxamide]
Phase transformation of the formulated active ingredient (DSC and PXRD) [3]: converted fully into needle like crystals of form B
Conversion of solid form in water suspension (XRD analysis) ([2]; after 2 days): converted (based on XRD analysis) into form B
